Results on four compounds are retold here after ChEMBL document CHEMBL1139589, “In vitro antiproliferative activity against human colon cancer cell lines of representative 4-thiazolidinones. Part I” (Bioorg Med Chem Lett, 2005).

Each structure is given as a SMILES string.

The target of assay [1] is T1, Prostaglandin G/H synthase 1 (Homo sapiens, UniProt P23219). Particulars: at 10 µM.
Description: Percentage inhibition activity at a concentration of 10 uM against cyclooxygenase 1 with the compound dissolved in DMSO
For assay [2], the target named is T2, Prostaglandin G/H synthase 2 (Homo sapiens) (UniProt P35354).
T2 sequence (whole entry): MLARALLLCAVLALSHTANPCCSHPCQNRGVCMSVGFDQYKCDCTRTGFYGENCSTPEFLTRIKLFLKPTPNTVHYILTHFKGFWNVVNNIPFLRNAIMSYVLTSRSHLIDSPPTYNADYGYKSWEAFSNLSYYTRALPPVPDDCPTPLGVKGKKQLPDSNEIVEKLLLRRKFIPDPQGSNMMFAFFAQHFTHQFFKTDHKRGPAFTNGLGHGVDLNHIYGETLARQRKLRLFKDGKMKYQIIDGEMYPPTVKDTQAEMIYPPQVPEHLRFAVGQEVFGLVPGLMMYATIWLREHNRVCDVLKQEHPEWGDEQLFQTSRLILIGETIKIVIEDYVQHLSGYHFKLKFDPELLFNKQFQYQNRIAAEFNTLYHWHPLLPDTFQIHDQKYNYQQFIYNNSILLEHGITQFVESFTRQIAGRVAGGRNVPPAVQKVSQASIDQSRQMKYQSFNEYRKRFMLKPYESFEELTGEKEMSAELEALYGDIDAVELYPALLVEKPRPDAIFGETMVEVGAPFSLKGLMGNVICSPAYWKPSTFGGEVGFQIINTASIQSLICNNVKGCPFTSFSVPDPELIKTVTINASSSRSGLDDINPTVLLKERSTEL
As to conditions: at 10 µM.
Description: Percentage inhibition activity at a concentration of 10 uM against cyclooxygenase 2 with the compound dissolved in DMSO

Assay [3] concerns the target T1, Prostaglandin G/H synthase 1. Nature of the assay: In vitro inhibition activity against cyclooxygenase 1 with the compound dissolved in DMSO.
The target of assay [4] is T3, Prostaglandin G/H synthase 2 (Homo sapiens, UniProt P35354).
T3 sequence (P35354 whole entry): T2 sequence (whole entry)
In words: In vitro inhibition activity against cyclooxygenase 2 with the compound dissolved in DMSO.

Assay [5] is described as follows: Inhibition of growth of H630 cell line after 72 hours of exposure time with the compound dissolved in DMSO. In kind it is functional, cell-based. As to conditions: Homo sapiens, NCI-H630, 72 h.
Assay [6] is described as follows: Inhibition of growth of H630 cell line after 96 hours of exposure time with the compound dissolved in DMSO. In kind it is functional, cell-based. As to conditions: Homo sapiens, NCI-H630, 96 h.
Assay [7] deals with HT-29. In words: Inhibition of growth of HT-29 cell line after 72 hours of exposure time with the compound dissolved in DMSO. Format: functional, cell-based. Particulars: Homo sapiens, HT-29, 72 h.
Assay [8] concerns HT-29. In words: Inhibition of growth of HT-29 cell line after 96 hours of exposure time with the compound dissolved in DMSO. In kind it is functional, cell-based. As to conditions: Homo sapiens, HT-29, 96 h.
In another assay the test system is HCT-116. In words: Inhibition of growth of HCT116 cell line after 72 hours of exposure time with the compound dissolved in DMSO. In kind it is functional, cell-based. As to conditions: Homo sapiens, HCT-116, 72 h.
A short description of assay [9]: Inhibition of growth of HCT116 cell line after 96 hours of exposure time with the compound dissolved in DMSO. In kind it is functional, cell-based. As to conditions: Homo sapiens, HCT-116, 96 h.
The test system of assay [10] is HT-29. Nature of the assay: Inhibition of growth of HT-29 cell line after 24+72 hours of exposure time with the compound dissolved in DMSO. In kind it is functional, cell-based. As to conditions: Homo sapiens, HT-29, 72 h.
Assay [11] relates to HT-29. In words: Inhibition of growth of HT-29 cell line after 72+72 hours of exposure time with the compound dissolved in DMSO. Format: functional, cell-based. As to conditions: Homo sapiens, HT-29, 72 h.
In assay [12] the test system is DLD-1. In words: Inhibition of growth of DLD-1 cell line after 72 hours of exposure time with the compound dissolved in DMSO. In kind it is functional, cell-based. Particulars: Homo sapiens, DLD-1, 72 h.
The subject of assay [13] is HCT-8. Nature of the assay: Inhibition of growth of HCT-8 cell line after 72 hours of exposure time with the compound dissolved in DMSO. Particulars: Homo sapiens, HCT-8, 72 h. In kind it is functional, cell-based.
Assay [14] relates to HCT-8. In words: Inhibition of growth of HCT-8 cell line after 96 hours of exposure time with the compound dissolved in DMSO. As to conditions: Homo sapiens, HCT-8, 96 h. In kind it is functional, cell-based.
The subject of assay [15] is DLD-1. In words: Inhibition of growth of DLD-1 cell line after 24+72 hours of exposure time with the compound dissolved in DMSO. As to conditions: Homo sapiens, DLD-1, 72 h. Format: functional, cell-based.
The subject of assay [16] is DLD-1. Nature of the assay: Inhibition of growth of DLD-1 cell line after 72+72 hours of exposure time with the compound dissolved in DMSO. Format: functional, cell-based. As to conditions: Homo sapiens, DLD-1, 72 h.
Assay [17] is described as follows: Inhibition of growth of HCT116 cell line after 24+72 hours of exposure time with the compound dissolved in DMSO. Format: functional, cell-based. As to conditions: Homo sapiens, HCT-116, 72 h.
The nature of assay [18]: Inhibition of growth of HCT116 cell line after 72+72 hours of exposure time with the compound dissolved in DMSO. In kind it is functional, cell-based. Particulars: Homo sapiens, HCT-116, 72 h.
Assay [19] has as its system DLD-1. Nature of the assay: Inhibition of growth of DLD-1 cell line after 96 hours of exposure time with the compound dissolved in DMSO. In kind it is functional, cell-based. As to conditions: Homo sapiens, DLD-1, 96 h.

T1 sequence (P23219 whole entry): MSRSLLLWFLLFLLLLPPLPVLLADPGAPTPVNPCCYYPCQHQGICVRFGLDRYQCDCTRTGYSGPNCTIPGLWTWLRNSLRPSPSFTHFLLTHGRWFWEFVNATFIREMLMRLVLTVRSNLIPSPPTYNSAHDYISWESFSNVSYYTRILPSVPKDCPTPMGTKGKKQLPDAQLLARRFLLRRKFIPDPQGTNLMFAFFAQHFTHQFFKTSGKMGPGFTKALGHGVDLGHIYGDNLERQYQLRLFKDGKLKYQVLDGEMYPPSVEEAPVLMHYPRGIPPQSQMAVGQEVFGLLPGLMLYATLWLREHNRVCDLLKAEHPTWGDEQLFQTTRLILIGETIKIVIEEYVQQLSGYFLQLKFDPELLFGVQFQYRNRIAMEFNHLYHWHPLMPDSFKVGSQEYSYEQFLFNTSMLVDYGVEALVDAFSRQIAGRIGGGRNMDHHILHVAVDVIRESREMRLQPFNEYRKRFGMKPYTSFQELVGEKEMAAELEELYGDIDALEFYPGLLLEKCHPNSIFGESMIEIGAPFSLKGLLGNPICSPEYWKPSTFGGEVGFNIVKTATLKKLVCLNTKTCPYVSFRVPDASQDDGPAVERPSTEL

As a reminder, the inhibition is the drop in the measured response relative to a control, in per cent. Higher therefore signals a strong effect. With `CCCN1C(=O)CS/C1=N/c1ccccc1`, the inhibition in assay [1] turned out to be 8%; in assay [2] it was 0%.
As a reminder, the IC50 is the point on the concentration scale where inhibition reaches its midpoint. A high value points to lower potency. For `COc1ccc(C2SCC(=O)N2CCN2C(=O)CSC2c2ccc(OC)cc2)cc1` (stereo not given), the IC50 in assay [3] was found to be 53.7 µM; in assay [4], 1.12 µM.
With `CCCN1C(=O)/C(=C/c2cccc(OC)c2)S/C1=N/c1ccccc1`, the IC50 in assay [5] is over 100 µM; in assay [6] it was over 100 µM; in the assay on HT-29 [7], 64.1 µM; in the assay with HT-29 [8], 23.4 µM; with HCT-116, over 100 µM; in assay [9] it was 34.2 µM. Also, the IC50 was 92.8 µM in the assay with HT-29 [10]; 36.2 µM in the assay on HT-29 [11]; over 100 µM in the assay with DLD-1 [12]; over 100 µM with HCT-8 [13]; over 100 µM in the assay on HCT-8 [14]; over 100 µM with DLD-1 [15]. In addition, the IC50 in the assay on DLD-1 [16] was over 100 µM; in [17], over 100 µM; in assay [18] it was over 100 µM; with DLD-1 [19], 13.1 µM. The figures for the inhibition in assay [1] and in [2] were 0% and 24%, respectively.
Take `O=C1NC(=O)/C(=C/c2cccc(C(F)(F)F)c2)S1`: the IC50 in [5] came to 97.6 µM; in assay [6], 83.2 µM; in the assay with HT-29 [7], 38.8 µM; in the assay with HT-29 [8], 59.7 µM; in the assay with HCT-116, 48.8 µM; in assay [9], 45.5 µM. Besides, the IC50 turned out to be 71.7 µM in the assay on HT-29 [10]; 31.4 µM with HT-29 [11]; 37.4 µM in the assay with DLD-1 [12]; 100 µM in the assay on HCT-8 [13]; 82.2 µM with HCT-8 [14]; 40.1 µM with DLD-1 [15]. Also, the IC50 with DLD-1 [16] was 31.4 µM; in assay [17], 91.7 µM; in assay [18], 36.8 µM; in the assay with DLD-1 [19], 17.8 µM. Also, the inhibition in assay [1] and in assay [2] was 0% each time.
